Data reported in patent US6706664B1, “Benzoxazole compounds, process for the preparation thereof and herbicides” (UBE Industries, Ltd., priority 1999, dated 2004).

Tests used:
Design in all cases: key: 0: normal development; 1: Less damaged; 2: Slightly damaged; 3: Moderately damaged; 4: Severely damaged; 5: All killed
young rice plant = test: Herbicidal test for paddy field; type: in vivo; conditions: paddy field pot, 500 g/ha dropwise at 1.5 leaf stage of barnyardgrass, 3 weeks, rank vs non-treated
Procedure, shortened: (§1)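 Post-flooding water application of 500 g/ha, given at 1.5-leaf barnyardgrass, to plants in Ube alluvial soil held under 3 cm of water. Ratings of 0 to 5 relative to untreated controls were made after three weeks in a glasshouse.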

bulrush = test: Herbicidal test for paddy field; type: in vivo, Scrips juncoides; conditions: paddy field pot, 500 g/ha dropwise at 1.5 leaf stage of barnyardgrass, 3 weeks, rank vs non-treated
Procedure, shortened: as §1

flat sedge = test: Herbicidal test for paddy field; type: in vivo, Cyperus serotinus; conditions: paddy field pot, 500 g/ha dropwise at 1.5 leaf stage of barnyardgrass, 3 weeks, rank vs non-treated
Method: Wagner pots, each having an area of 1/5000 are, were packed with Ube soil (alluvial soil) and planted with seeds or tubers of young rice plant, barnyardgrass, bulrush, flat sedge and monochoria. Then, the pots were filled with water to a depth of 3 cm.
Each wettable powder of the desired compounds (I) shown in Table 1 prepared in accordance with Example 2 was diluted with water containing a surfactant (0.05%) and subjected to dropwise addition treatment by using pipet so that an effective concentration of the compound (I) in each herbicide became 500 g/ha at 1.5 leaf stage of barnyardgrass.
These plants were controlled in a glass house at an average temperature of 25° C. for 3 weeks, and then herbicidal effects thereof were investigated.
The herbicidal effects are evaluated according to the following 6 ranks as compared with non-treated district.
(0: normal development, 1: Less damaged, 2: Slightly damaged, 3: Moderately damaged, 4: Severely damaged, 5: All killed).

blackgrass [1] = test: Soil treatment test for upland field; type: in vivo, Alopecurus aegualis; conditions: 500 g/ha, glass house 25° C., 3 weeks
Procedure, shortened: (§2)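 Compounds were formulated as wettable powders and applied pre-emergence to the surface of freshly sown alluvial soil at 500 g/ha. After three weeks in a glass house averaging 25° C, damage was rated from 0 (normal development) to 5 (all killed).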

annual bluegrass = test: Soil treatment test for upland field; type: in vivo, Poa annua; conditions: 500 g/ha, glass house 25° C., 3 weeks
Procedure, shortened: as §2

common lambsquartes = test: Soil treatment test for upland field; type: in vivo, Chenopodium album; conditions: 500 g/ha, glass house 25° C., 3 weeks
Procedure, shortened: as §2

corn = test: Foliar spread test for upland field; type: in vivo; conditions: foliar spray 500 ppm, 3 weeks, rank vs non-treated
Procedure, shortened: (§3)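 Wettable powders at 500 ppm, with 0.5% surfactant, were sprayed uniformly over plants raised for roughly 2 weeks in glasshouse pots of volcanic ash soil. Herbicidal damage rated on a 0–5 scale (5 = all killed) after a further 3 weeks at an average 25 °C.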

solgum = test: Foliar spread test for upland field; type: in vivo; conditions: foliar spray 500 ppm, 3 weeks, rank vs non-treated
Procedure, shortened: as §3

sugar beat = test: Foliar spread test for upland field; type: in vivo; conditions: foliar spray 500 ppm, 3 weeks, rank vs non-treated
Procedure, shortened: as §3

wheat = test: Foliar spread test for upland field; type: in vivo; conditions: foliar spray 500 ppm, 3 weeks, rank vs non-treated
Procedure, shortened: as §3

blackgrass [2] = test: Foliar spread test for upland field; type: in vivo, Alopecurus aegualis; conditions: foliar spray 500 ppm, 3 weeks, rank vs non-treated
Procedure, shortened: (§4)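 Seeds are planted in pots of volcanic ash soil and grown roughly 2 weeks under glass. Foliage then receives a uniform spray of compound at 500 ppm in water with 0.5% surfactant. Herbicidal damage is rated 0–5 after 3 weeks at an average 25° C.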

livid amaranth = test: Foliar spread test for upland field; type: in vivo, Amaranthus lividus; conditions: foliar spray 500 ppm, 3 weeks, rank vs non-treated
Procedure, shortened: as §4

cotton = test: Foliar spread test for upland field; type: in vivo; conditions: foliar spray 500 ppm, 3 weeks, rank vs non-treated
Procedure, shortened: as §3

soybean = test: Foliar spread test for upland field; type: in vivo; conditions: foliar spray 500 ppm, 3 weeks, rank vs non-treated
Procedure, shortened: as §3

barnyardgrass = test: Foliar spread test for upland field; type: in vivo, Echinochloa crusgalli; conditions: foliar spray 500 ppm, 3 weeks, rank vs non-treated
Procedure, shortened: as §4

| SMILES | Effect Young rice plant (young rice plant) | Effect Bulrush (bulrush) | Effect Flat sedge (flat sedge) | Effects Blackgrass (blackgrass [1]) | Effects Annual bluegrass (annual bluegrass) | Effects Common lambsquarters (common lambsquartes) | Effects Corn (corn) | Effects Solgum (solgum) | Effects Sugar beat (sugar beat) | Effects Wheat (wheat) | Effects Blackgrass (blackgrass [2]) | Effects Livid amaranth (livid amaranth) | Effects Cotton (cotton) | Effects Soybean (soybean) | Effects Barnyardgrass (barnyardgrass) |
| --- | --- | --- | --- | --- | --- | --- | --- | --- | --- | --- | --- | --- | --- | --- | --- |
| CCCC(Oc1cccc(C(F)(F)F)c1)c1nc2cc(C#N)c(C#N)cc2o1 (centres unmarked) [Compound 317] | 1 | 3 | 5 | 5 | 5 | 5 | 2 | 1 | 5 | 2 | 2 | 5 | – | – | – |
| CCC(Oc1ccc(F)c(C(F)(F)F)c1)c1nc2cc(F)ccc2o1 (centres unmarked) [Compound 119, 1-(5-fluorobenzoxazol-2-yl)-1-(4-fluoro-3-(trifluoromethyl)phenoxy)propane] | 1 | – | 2 | 3 | 5 | 1 | 2 | 1 | 3 | 1 | – | 4 | 1 | 2 | 1 |
| CCC(Oc1ccc(F)c(C(F)(F)F)c1)c1nc2cc(Br)ccc2o1 (centres unmarked) [Compound 165] | 2 | – | 3 | 4 | 5 | 3 | 2 | 2 | – | 2 | 3 | 4 | 3 | 5 | 2 |
| CCCC(Oc1ccc(F)c(C(F)(F)F)c1)c1nc2cc(C#N)c(Cl)cc2o1 (centres unmarked) [Compound 533] | 2 | – | 2 | 4 | 4 | 5 | 2 | 2 | 5 | 2 | 3 | 5 | – | – | 2 |
| CCC(Oc1cccc(C(F)(F)F)c1)c1nc2cc(Cl)c(C)cc2o1 (centres unmarked) [Compound 339, 1-(5-chloro-6-methylbenzoxazol-2-yl)-1-(3-(trifluoromethyl)phenoxy)propane] | 1 | 4 | – | 3 | 5 | 4 | 2 | 1 | 3 | 1 | 2 | 4 | 3 | 3 | 2 |
| CCC(Oc1cccc(OC(F)(F)F)c1)c1nc2cc(C#N)c(C#N)cc2o1 (centres unmarked) [Compound 527] | 2 | 3 | 3 | 4 | 5 | 5 | – | 1 | 5 | 2 | 2 | 5 | – | – | – |
| CCC(Oc1cccc(C(F)(F)F)c1)c1nc2cc(C#N)c(Cl)cc2o1 (centres unmarked) [Compound 529] | – | 5 | 4 | 5 | 5 | 5 | – | 3 | 5 | 2 | 4 | 5 | – | – | 3 |
| CCCC(Oc1cccc(C(F)(F)F)c1)c1nc2cc(C(F)(F)F)ccc2o1 (centres unmarked) [Compound 200] | 0 | 2 | – | 4 | 5 | 4 | 2 | 2 | 4 | 2 | 2 | 4 | 3 | 3 | 2 |
| CCCC(Oc1cccc(C(F)(F)F)c1)c1nc2cc(C#N)c(Cl)cc2o1 (centres unmarked) [Compound 532] | – | 5 | 2 | 5 | 5 | 5 | 2 | 2 | 5 | – | 4 | 5 | – | – | 2 |
| CCC(Oc1cccc(C(F)(F)F)c1)c1nc2cc(F)c(C(F)(F)F)cc2o1 (centres unmarked) [Compound 471] | – | 2 | 5 | 5 | 5 | 5 | 2 | 3 | 5 | 2 | 3 | 5 | – | – | – |
